# Non-standard residues stand in square brackets, D forms with d. Residues, ends and D or L forms follow the SMILES beside them.
# Key:
# N2a-Tau^RDΔK cells [1] = assay: LDH release with the peptides alone; format: cell-based; conditions: 25, 50, 100, 250 μM peptide, 24 h, n = 3
# Procedure: N2a cells expressing Tau^RDΔK were plated on poly D-lysine-coated 96-well plates with a density of 25,000 cells/well. At 70 to 80% confluence, the cells were treated for 24 h with various concentrations of D-peptides (25, 50, 100, and 250 μM) or Tau^RDΔK (10 μM final concentration) in the presence of ISAD1 and ISAD1rev (100 μM final concentration). The ability of D-peptides to neutralize the toxicity of Tau^RDΔK oligomers/fibrils was investigated by measuring the amount of released LDH (Roche Diagnostics, Mannheim, Germany). Therefore, 50 μL of each well was transferred to a fresh 96-well plate and 50 μL of reagent was added followed by a 30-min incubation period at RT. Finally, 50 μL of stop solution (1 N HCl) was added and absorbance was recorded at 492 nm (TECAN spectrofluorometer, Männedorf, Switzerland). Absorbance values were corrected by background values and the percentage of LDH release was calculated.
# [2] = system: N2a cells expressing Tau^RDΔK; assay: Uptake of FAM-labeled D-peptides by confocal microscopy; format: cell-based; conditions: 25 μM FAM-labeled peptide, 24 h, fixed cells
# Procedure: In order to become potentially suitable for therapeutic development, the D-peptides should be internalized by neurons. To test this, 25 μM FAM-labeled ISAD1 or its inversed form was added to cells that express pro-aggregant mutant Tau^RDΔK for 24 h followed by cell fixation.
# Fig. 7 Uptake of fluorescence-labeled D-peptides analyzed by confocal microscopy. 25 μM FAM-labeled peptides (ISAD1 and ISArev) were incubated with N2a cells expressing Tau^RDΔK for 24 h. The uptake of D-peptides was analyzed by confocal microscopy. As shown in the representative images, the peptides are mainly localized in the cytoplasm (A1, B1 Draq5 shown as red; A2 ISAD1-FAM, B2 ISAD1rev-FAM; A3, B3 merged images)
# N2a-Tau^RDΔK cells [3] = assay: MTT cytotoxicity of the peptides alone; format: cell-based; conditions: 25, 50, 100, 250 μM peptide, 24 h, n = 3
# Procedure: Cell viability was analyzed in accordance with the manufacturer’s protocol (Roche Diagnostics, Mannheim, Germany; cell proliferation kit II (MTT)). This assay is based on the cleavage of the yellow tetrazolium salt MTT into purple formazan dye by metabolic active cells. The color changes only in viable cells and can be directly quantified using a scanning multiwell spectrophotometer. In all experiments, the cells were grown as described previously. The cells (25,000 cells/well or 80% confluence) were plated on poly D-lysine-coated 96-well plates (Greiner Bio-One GmbH, Frickenhausen, Germany) for stronger attachment from overnight to 24 h at 37 °C. Fibrillized Tau^RDΔK was generated by incubating 200 μM Tau^RDΔK in BES buffer at 37 °C for 24 h in the presence of 2 mM D-peptides (Tau^RDΔK:peptide = 1:10). Successful fibrillization was verified using ThS (5 μM Tau^RDΔK, 10 μM ThS) measurement. The aggregated Tau^RDΔK (10 μM final concentration), Tau^RDΔK (10 μM) + peptide (100 μM) samples (ISAD1 and ISAD1rev), buffer only (negative control, set to 100% cell viability), and TritonX-100 (2%, cytotoxic agent, positive control) were incubated on N2a-Tau^RDΔK cells (100 μl solution) for another 24 h. The cell viability was measured in accordance with the manufacturer’s protocol.
# A MTT-based cytotoxicity assay in the presence of ISAD1 and ISAD1rev peptides. […]
# Tau^FL [4] = target: T1, Tau^FL (Homo sapiens, UniProt P10636); assay: Fibrillization of Tau^FL monitored by ThT assay; format: biochemical; set-up: key to Inhibition of Tau^FL aggregation: (+/-) indicates comparably low inhibition of Tau^FL fibrillization; (-) indicates that the peptide showed no effect on fibril formation; conditions: L-peptides
# T1 construct: Tau^FL Full-length human Tau (441 AA); made in house
# Procedure: Tau aggregation assays were performed under reducing conditions. Before the addition of heparin and peptides, a final concentration of 1 mM dithiothreitol (DTT) was added to the Tau protein solution and heated at 95 °C for 10 min. […] Final concentration of 10 μM ThT was used for monitoring fibrillization. In case of the two hexapeptides, 5 μM PHF6 and 5 μM PHF6*, respectively, without addition of the aggregation inducer heparin (16000 Da) were used for monitoring the fibrillization process. The assays were performed with 50-μl sample volume per well in a 96-well half area microtiter plate (Greiner Bio-One GmbH, Frickenhausen, Germany). The fibrillization of Tau^FL was monitored by ThT, and the relative fluorescence intensity of ThT was read out at 440 excitation/521 emission nm in a BMG microplate reader (BMG Labtech, Ortenberg, Germany).
# Tau^FL [5] = target: T1, Tau^FL; assay: ELISA of FAM-labeled peptide binding to Tau^FL; conditions: FAM-labelled peptide 0.1 – 200 µM, Tau^FL 5 µg/ml, n = 3
# Procedure: A 96-well microtiter plate (Greiner Bio-One GmbH, Frickenhausen, Germany) was coated with 5 μg/ml Tau^FL or fibrils in coating buffer for incubation overnight at 4 °C. For investigation of the binding properties to the hexapeptide, 5 μM PHF6 was coated overnight. After three times washing with 300 μl phosphate-buffered saline with Tween20 (PBST: PBS with 0.1 % [v/v] Tween20), the plate was blocked with 3 % [w/v] BSA in PBS for 1 h at RT, followed by further washing steps. […] The plate was washed three times with PBST before 100 μl sheep anti-fluorescein isothiocyanate (FITC) HRP-conjugate (1:5000 dilution in PBST; AbD Serotec, Puchheim, Germany) was added and incubated for 1 h at RT with gentle agitation. Again, the plate was washed for three times, followed by addition of the TMB substrate. The reaction was stopped with 20 % [v/v] H2SO4 and absorbance was measured at 450 nm.
# Tau = conditions: PHF6 addressing peptide; read-out: Inhibition of fibrillization of Tau (compared with the IC50 of ISAD1); cited from earlier work
# Procedure: Aggregation of Tau is the primary hallmark for the disease pathology in AD and other tauopathies. A significant inhibition of the aggregation by therapeutic molecules is considered beneficial. Our novel peptide ISAD1 inhibited the fibrillization of Tau^FL and pro-aggregant Tau^RDΔK (IC50 of ~3 μM) in concentrations which are typical for peptide inhibitors.
# T1 sequence (P10636 1-441 isoform P10636-8): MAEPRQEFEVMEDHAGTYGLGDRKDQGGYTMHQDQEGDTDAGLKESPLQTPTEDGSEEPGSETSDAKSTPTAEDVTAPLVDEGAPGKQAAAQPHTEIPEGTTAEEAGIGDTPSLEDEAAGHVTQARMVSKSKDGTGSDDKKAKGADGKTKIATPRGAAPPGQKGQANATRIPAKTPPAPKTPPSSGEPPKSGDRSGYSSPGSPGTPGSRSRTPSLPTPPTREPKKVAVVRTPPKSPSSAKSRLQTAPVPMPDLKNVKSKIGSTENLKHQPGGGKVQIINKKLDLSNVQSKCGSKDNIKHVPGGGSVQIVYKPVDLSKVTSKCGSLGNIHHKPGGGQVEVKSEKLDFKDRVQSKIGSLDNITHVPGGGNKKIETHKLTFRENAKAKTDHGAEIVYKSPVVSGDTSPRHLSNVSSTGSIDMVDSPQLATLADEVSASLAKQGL
molecule,measurement,setting,value
CC(C)C[C@@H](NC(=O)[C@@H](CCCCN)NC(=O)[C@@H](Cc1ccccc1)NC(=O)[C@H](NC(=O)[C@H](N)CO)C(C)C)C(=O)N[C@H](CO)C(=O)N[C@H](CC(C)C)C(=O)N[C@@H](C(=O)N[C@H](CC(=O)O)C(=O)N[C@H](C)C(=O)N[C@H](C)C(=O)N[C@H](CO)C(=O)O)[C@H](C)O [ISAD1] (H-[dS][dV][dF][dK][dL][dS][dL][dT][dD][dA][dA][dS]-OH),"Cytotoxicity, LDH release",N2a-Tau^RDΔK cells [1],do not induce toxic effects
same,Intracellular localisation,[2],accumulated in the cytosol but were excluded from the nucleus
same,Uptake by cells,[2],almost all cells took up the D-peptides
same,"Cytotoxicity, MTT",N2a-Tau^RDΔK cells [3],do not induce toxic effects
"SASVTSKFDALL [ISAL1sam, scrambled L-amino acid variant of ISAL1, control peptide]","Inhibition of Tau^FL fibrillization, in words",Tau^FL [4]; ThT assay,did not inhibit
same,Inhibition of Tau^FL aggregation,Tau^FL [4]; ThT fibrillization assay,-
same,"Binding to Tau^FL in ELISA, in words",Tau^FL [5],no significant binding
TLKIVW,IC50,Tau,54.1 µM

# — publication PMC8783508, “A novel D-amino acid peptide with therapeutic potential (ISAD1) inhibits aggregation of neurotoxic disease-relevant mutant Tau and prevents Tau toxicity in vitro” (Alzheimer's Research & Therapy, 2022)
